# Assay results: PubChem BioAssay (NCI)
#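 Results reflect a 48-hour exposure of cells in 96-well plates to compound at five concentrations. TGI is the concentration that stops growth completely.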
# Columns and labels:
# Test in all cases: DTP human tumour cell line panel, 48 h
# [1] = system: SF-268 CNS
# [2] = system: UO-31 renal
# [3] = system: BT-549 breast
# [4] = system: KM12 colon
# [5] = system: SW-620 colon
# [6] = system: RXF 393 renal
# [7] = system: LOX IMVI melanoma
# [8] = system: NCI-H226 lung
# [9] = system: MALME-3M melanoma
# [10] = system: HOP-62 NSCLC
# [11] = system: M14 melanoma
# [12] = system: SK-MEL-5 melanoma
# [13] = system: HOP-92 NSCLC
# [14] = system: CAKI-1 renal
# [15] = system: 786-0 renal
# [16] = system: DU-145 prostate
# [17] = system: PC-3 prostate
# [18] = system: HCT-116 colon
# [19] = system: IGROV1 ovarian
# [20] = system: HL-60(TB) leukemia
SMILES,TGI [1],TGI [2],TGI [3],TGI [4],TGI [5],TGI [6],TGI [7],TGI [8],TGI [9],TGI [10],TGI [11],TGI [12],TGI [13],TGI [14],TGI [15],TGI [16],TGI [17],TGI [18],TGI [19],TGI [20]
O=C(NCCN1CCCCC1)c1ccc(I)cc1,> 100 µM,> 100 µM,> 100 µM,> 100 µM,> 100 µM,> 100 µM,> 100 µM,> 100 µM,> 100 µM,> 100 µM,> 100 µM,> 100 µM,> 100 µM,> 100 µM,> 100 µM,> 100 µM,> 100 µM,> 100 µM,> 100 µM,
Oc1ccccc1C1=NOC(c2ccc(C(F)(F)F)cc2)C1 (stereo unspecified),> 50 µM,> 50 µM,> 50 µM,> 50 µM,> 50 µM,> 50 µM,> 50 µM,> 50 µM,> 50 µM,> 50 µM,> 50 µM,> 50 µM,,> 50 µM,> 50 µM,> 50 µM,> 50 µM,> 50 µM,> 33.3 µM,> 50 µM
COc1ccccc1N=N/C(=N\NC(=O)c1ccc(C)cc1)c1ccc(N(CCC#N)CCC#N)cc1C,> 100 µM,> 100 µM,> 100 µM,> 100 µM,> 100 µM,> 100 µM,> 100 µM,28.5 µM,77.4 µM,> 100 µM,> 100 µM,53.6 µM,> 100 µM,> 100 µM,> 100 µM,> 100 µM,> 100 µM,> 100 µM,> 100 µM,
NC(Cc1ccc(S(=O)(=O)O)cc1)C(=O)NC(Cc1ccc(S(=O)(=O)O)cc1)C(=O)NC(Cc1ccc(S(=O)(=O)O)cc1)C(=O)O (stereo unspecified),> 100 µM,> 100 µM,> 100 µM,> 100 µM,> 100 µM,> 100 µM,> 100 µM,> 100 µM,> 100 µM,> 100 µM,> 100 µM,> 100 µM,,> 100 µM,> 100 µM,> 100 µM,> 100 µM,> 100 µM,> 100 µM,> 100 µM
C=CC(Br)(CBr)CCC(Br)C(C)(C)Cl (stereo unspecified),4.51 µM,3.97 µM,21.8 µM,3.92 µM,5.67 µM,8.86 µM,,52.9 µM,19.2 µM,7.87 µM,14.6 µM,23.4 µM,4.32 µM,,5.64 µM,9.92 µM,9.1 µM,3.4 µM,12.8 µM,2.6 µM
COC1=CC(=O)c2c(c(COP(=O)(N(C)CCBr)N(C)CCBr)cn2C)C1=O,1.75 µM,0.294 µM,0.616 µM,1.07 µM,0.317 µM,0.289 µM,3.56 µM,,0.291 µM,0.776 µM,0.259 µM,0.328 µM,,0.377 µM,0.349 µM,1.06 µM,7.02 µM,,3.93 µM,> 100 µM
